For data set [1], the system named is cell lines. To be noted: certain cell lines, compared with DOTMA; cited from earlier work.
Data set [2] has as its system cell lines. To be noted: transfection of certain cell lines, compared with DOTMA; cited from earlier work.
Data set [3] deals with anti-CAT immune response in mice. As to the kind of experiment: ELISA and Western blot after IP immunization with CAT plasmids with different promoters (Example 3). To be noted: compared with LIPOFECTACE
Format: in vivo. On the procedure:
A CAT enzyme-linked immunoassay (ELISA) was used to determine the presence of CAT antibodies in mouse sera samples. Microwell titer plates were prepared by incubating each well of the plate with 1 microgram/ml of CAT in 0.1 M sodium carbonate buffer, pH 9.5. The plates were incubated for 18 hours at 4ΕC. The wells were blocked with 0.2% ovalbumin dissolved in phosphate-buffered saline (PBS) with 0.1% Tween-20 (dilution buffer). Samples were diluted in the dilution buffer, and 200 microliters were added to a well on the plate. The plate was sealed, and then incubated for 60 minutes at 37 degrees C. Following a wash, the plates were incubated with 0.1 micrograms/ml goat anti-mouse IgG—horseradish peroxidase (HRP) conjugate. The plate was sealed and then incubated for 30 minutes at 37 degrees C. Following a second wash, the plates were developed with 3,3′,5,5′-tetramethylbenzidine substrate at room temperature. The reaction was stopped by adding 2N sulfuric acid.
The results were analyzed using Western Blot analysis. Nitrocellulose sheets were prepared by applying purified CAT protein to the nitrocellulose (0.1 micrograms CAT protein/cm nitrocellulose). Sera samples were diluted into dilution buffer and 2 ml were added to each nitrocellulose strip. The strips were incubated for 90 minutes with rocking at room temperature. […]
(ELISA stands for enzyme-linked immunosorbent assay.)

These results are taken from patent US7166298B2, “Genetic immunization with cationic lipids” (Invitrogen Corporation, priority 1993, dated 2007).

Turning to `CC(C)CCC[C@@H](C)[C@H]1CC[C@H]2[C@@H]3CC=C4C[C@@H](OC(=O)NCCN(C)C)CC[C@]4(C)[C@H]3CC[C@]12C` [DC-Chol], in data set [1], the transfection efficiency result is “more efficient transfection”. Moreover, the toxicity result in data set [2] is “lower toxicity”.

For `CCCCCCCCCCCCCCCCCCN(CCCCCCCCCCCCCCCCCC)C(=O)CNC(=O)C(CCCNCCCN)NCCCN` (stereo not shown) [DOGS, 5-carboxylspermylglycine dioctadecylamide], in data set [1], the transfection efficiency result is reported as “more efficient”. Besides, the toxicity entry in data set [2] is given as “less toxic than DOTMA”.

Regarding `CCCCCCCCCCCCCCCC(=O)OCC(COP(=O)(O)OCCNC(=O)C(CCCNCCCN)NCCCN)OC(=O)CCCCCCCCCCCCCCC` (stereo not shown) [DPPES, dipalmitoylphosphatidylethanolamine 5-carboxyspermylamide], the transfection efficiency result in data set [1] is reported as “more efficient”. In data set [2], the toxicity entry is recorded as “less toxic than DOTMA”.

`CCCCCCCCC=CCCCCCCCCOCC(C[N+](C)(C)CCBr)OCCCCCCCCC=CCCCCCCCC.[Br-]` (stereo not shown) [bromo lipid, 1-propanaminium, N-[2(2-bromo)ethyl]-N,N-dimethyl-2,3-bis(9-octadecenyloxy)-bromide]: the “consistency in generating an immune response (ELISA)” value in data set [3] is given as “more consistent results”.
